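How tested: cells in 96-well plates exposed to compound for 48 hours at five concentrations. GI50: concentration for 50% inhibition of growth.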 Activity calls are given as the source filed them. Rule as the data show it: active = GI50 up to about 1.1 µM and inactive = higher.
Legend:
Test in all cases: growth of human tumour cells (NCI), 48 h
HCT-116 = test system: HCT-116
ACHN = test system: ACHN
DMS-273 = test system: DMS-273
SK-OV-3 = test system: SK-OV-3
CAKI-1 = test system: CAKI-1
EKVX = test system: EKVX
HOP-18 = test system: HOP-18
A549 = test system: A549
IGROV-1 = test system: IGROV-1
COLO 205 = test system: COLO 205
HL-60 = test system: HL-60
SW-620 = test system: SW-620
HT-29 = test system: HT-29
OVCAR-3 = test system: OVCAR-3
DLD-1 = test system: DLD-1
UACC-62 = test system: UACC-62
K562 = test system: K562
M14 = test system: M14
NCI-H23 = test system: NCI-H23
RPMI-8226 = test system: RPMI-8226
HCT-15 = test system: HCT-15
KM-20L2 = test system: KM-20L2
SNB-75 = test system: SNB-75
RXF 631 = test system: RXF 631
OVCAR-4 = test system: OVCAR-4
MOLT-4 = test system: MOLT-4
CCRF-CEM = test system: CCRF-CEM
SF-539 = test system: SF-539
OVCAR-8 = test system: OVCAR-8
NCI-H460 = test system: NCI-H460
U-251 = test system: U-251
RXF 393 = test system: RXF 393
HOP-62 = test system: HOP-62
DMS-114 = test system: DMS-114
TK-10 = test system: TK-10
SK-MEL-5 = test system: SK-MEL-5
UO-31 = test system: UO-31
SK-MEL-28 = test system: SK-MEL-28
SNB-19 = test system: SNB-19
HOP-92 = test system: HOP-92
M19-MEL = test system: M19-MEL
UACC-257 = test system: UACC-257
SF-295 = test system: SF-295
Malme-3M = test system: Malme-3M
LOX IMVI = test system: LOX IMVI
SN12C = test system: SN12C
SNB-78 = test system: SNB-78
XF498 = test system: XF498
NCI-H522 = test system: NCI-H522
SR = test system: SR
SK-MEL-2 = test system: SK-MEL-2
SF-268 = test system: SF-268
786-0 = test system: 786-0
LXFL 529 = test system: LXFL 529
KM12 = test system: KM12
OVCAR-5 = test system: OVCAR-5
HCC 2998 = test system: HCC 2998
A498 = test system: A498
NCI-H226 = test system: NCI-H226

Measured: GI50

CC(=O)OCC1=C(C(=O)O)C(c2ccc3c(c2)OCO3)c2cc3c(cc2O1)OCO3 (stereo not given)
inactive: HCT-116 > 100 µM | ACHN > 100 µM | DMS-273 > 100 µM | SK-OV-3 > 100 µM | CAKI-1 > 100 µM | EKVX > 100 µM | HOP-18 > 100 µM | A549 > 100 µM | IGROV-1 > 100 µM | COLO 205 > 100 µM | HL-60 > 100 µM | SW-620 > 100 µM | HT-29 > 100 µM | OVCAR-3 > 100 µM | DLD-1 > 100 µM | UACC-62 > 100 µM | K562 > 100 µM | M14 > 100 µM | NCI-H23 > 100 µM | RPMI-8226 > 100 µM | KM-20L2 > 100 µM | SNB-75 53.8 µM | RXF 631 > 100 µM | OVCAR-4 > 100 µM | MOLT-4 > 100 µM | CCRF-CEM > 100 µM | SF-539 > 100 µM | OVCAR-8 > 100 µM | NCI-H460 > 100 µM | U-251 > 100 µM | RXF 393 > 100 µM | HOP-62 > 100 µM | DMS-114 > 100 µM | TK-10 > 100 µM | SK-MEL-5 > 100 µM | UO-31 > 100 µM | SK-MEL-28 > 100 µM | SNB-19 > 100 µM | HOP-92 70.1 µM | M19-MEL > 100 µM | UACC-257 > 100 µM | SF-295 > 100 µM | Malme-3M > 100 µM | LOX IMVI > 100 µM | SN12C > 100 µM | SNB-78 > 100 µM | XF498 > 100 µM
> 100 µM: HCT-15

N#Cc1ccc(/C=C(/C(=O)c2ccccc2)c2ccccc2)cc1
12.2 µM: HCT-15
inactive: HCT-116 4.18 µM | ACHN 15.5 µM | DMS-273 4.82 µM | SK-OV-3 20.5 µM | CAKI-1 14.2 µM | EKVX 18.8 µM | HOP-18 27.5 µM | A549 16.9 µM | IGROV-1 23.7 µM | COLO 205 19.6 µM | HL-60 2.67 µM | SW-620 2.64 µM | HT-29 8.18 µM | NCI-H522 8.41 µM | OVCAR-3 16.1 µM | DLD-1 6.58 µM | UACC-62 7.48 µM | K562 2.6 µM | SR 2.62 µM | M14 13.3 µM | NCI-H23 15.7 µM | RPMI-8226 2.59 µM | KM-20L2 11.2 µM | SNB-75 27.2 µM | RXF 631 11.1 µM | OVCAR-4 10.2 µM | SK-MEL-2 15 µM | MOLT-4 2.99 µM | SF-268 15.2 µM | CCRF-CEM 3.19 µM | SF-539 21.2 µM | OVCAR-8 6.41 µM | NCI-H460 16.5 µM | U-251 12.4 µM | RXF 393 17.8 µM | HOP-62 17.9 µM | DMS-114 12.9 µM | TK-10 24 µM | SK-MEL-5 12.8 µM | UO-31 14.2 µM | SK-MEL-28 15.8 µM | SNB-19 19.4 µM | 786-0 10.9 µM | HOP-92 14 µM | M19-MEL 14 µM | LXFL 529 4.78 µM | KM12 3.24 µM | OVCAR-5 18 µM | HCC 2998 16.9 µM | UACC-257 12.4 µM | SF-295 9.55 µM | Malme-3M 12.6 µM | A498 17.9 µM | LOX IMVI 2.75 µM | SN12C 9.66 µM | NCI-H226 16.7 µM | SNB-78 2.79 µM | XF498 10.1 µM

N#CC(C(=O)CCCC(=O)Nc1ccc(Cl)cc1Cl)c1ccc(Cl)cc1 (stereo not given)
> 100 µM: HCT-15
inactive: HCT-116 > 100 µM | ACHN > 100 µM | DMS-273 > 100 µM | SK-OV-3 > 100 µM | CAKI-1 > 100 µM | HOP-18 31.7 µM | A549 > 100 µM | IGROV-1 > 100 µM | COLO 205 > 100 µM | HL-60 > 100 µM | SW-620 > 100 µM | HT-29 > 100 µM | NCI-H522 > 100 µM | OVCAR-3 > 100 µM | DLD-1 > 100 µM | UACC-62 > 100 µM | K562 > 100 µM | SR > 100 µM | M14 > 100 µM | NCI-H23 > 100 µM | RPMI-8226 > 100 µM | KM-20L2 > 100 µM | SNB-75 > 100 µM | RXF 631 > 100 µM | OVCAR-4 > 100 µM | SK-MEL-2 > 100 µM | MOLT-4 > 100 µM | SF-268 > 100 µM | SF-539 > 100 µM | OVCAR-8 > 100 µM | NCI-H460 > 100 µM | HOP-62 > 100 µM | TK-10 > 100 µM | UO-31 > 100 µM | SK-MEL-28 > 100 µM | SNB-19 > 100 µM | 786-0 > 100 µM | HOP-92 > 100 µM | LXFL 529 > 100 µM | KM12 > 100 µM | OVCAR-5 > 100 µM | HCC 2998 > 100 µM | UACC-257 > 100 µM | SF-295 > 100 µM | Malme-3M > 100 µM | LOX IMVI > 100 µM | SN12C > 100 µM | NCI-H226 > 100 µM | SNB-78 > 100 µM | XF498 > 100 µM

N#C/C(=C\c1ccccc1O)C(N)=O
inactive: HCT-116 77.3 µM | ACHN 48.9 µM | DMS-273 > 100 µM | SK-OV-3 53.1 µM | CAKI-1 54.8 µM | EKVX 59.4 µM | A549 > 100 µM | IGROV-1 > 100 µM | COLO 205 61.8 µM | HL-60 20.1 µM | SW-620 76.2 µM | HT-29 86.9 µM | NCI-H522 21.9 µM | OVCAR-3 48.5 µM | DLD-1 70.1 µM | UACC-62 50.1 µM | K562 51.2 µM | M14 > 100 µM | NCI-H23 82.4 µM | RPMI-8226 60.8 µM | KM-20L2 > 100 µM | SNB-75 28.1 µM | RXF 631 > 100 µM | OVCAR-4 > 100 µM | SK-MEL-2 62.1 µM | MOLT-4 62.7 µM | SF-268 81.7 µM | CCRF-CEM 23.6 µM | SF-539 > 100 µM | OVCAR-8 > 100 µM | NCI-H460 55.7 µM | U-251 > 100 µM | RXF 393 25.7 µM | HOP-62 > 100 µM | DMS-114 44.6 µM | TK-10 > 100 µM | SK-MEL-5 > 100 µM | UO-31 43.6 µM | SK-MEL-28 > 100 µM | SNB-19 71.8 µM | 786-0 > 100 µM | HOP-92 32.3 µM | M19-MEL > 100 µM | LXFL 529 72.8 µM | KM12 56.5 µM | OVCAR-5 > 100 µM | HCC 2998 > 100 µM | UACC-257 50.7 µM | SF-295 > 100 µM | Malme-3M > 100 µM | A498 > 100 µM | LOX IMVI > 100 µM | SN12C > 100 µM | NCI-H226 46.8 µM | SNB-78 46 µM | XF498 28.1 µM
87.7 µM: HCT-15

O=C1c2ccccc2C(=O)c2c1ccc1c2N=C(c2ccc(Br)cc2)CC(c2cccc3ccccc23)N1 (stereo not given)
> 100 µM: HCT-15
inactive: ACHN > 100 µM | DMS-273 > 100 µM | SK-OV-3 > 100 µM | CAKI-1 > 100 µM | EKVX > 100 µM | HOP-18 > 100 µM | A549 > 100 µM | IGROV-1 > 100 µM | COLO 205 > 100 µM | HL-60 > 100 µM | SW-620 > 100 µM | HT-29 > 100 µM | NCI-H522 > 100 µM | OVCAR-3 > 100 µM | DLD-1 > 100 µM | UACC-62 > 100 µM | K562 > 100 µM | SR 57.7 µM | M14 > 100 µM | NCI-H23 > 100 µM | RPMI-8226 83.6 µM | KM-20L2 > 100 µM | SNB-75 94.6 µM | RXF 631 > 100 µM | OVCAR-4 > 100 µM | SK-MEL-2 > 100 µM | MOLT-4 > 10 µM | SF-268 > 100 µM | CCRF-CEM > 100 µM | SF-539 > 100 µM | OVCAR-8 > 100 µM | NCI-H460 > 100 µM | U-251 > 100 µM | RXF 393 > 100 µM | HOP-62 > 100 µM | DMS-114 > 100 µM | TK-10 > 100 µM | SK-MEL-5 > 100 µM | UO-31 > 100 µM | SK-MEL-28 > 100 µM | SNB-19 > 100 µM | 786-0 > 100 µM | LXFL 529 > 100 µM | KM12 > 100 µM | OVCAR-5 > 100 µM | HCC 2998 > 100 µM | UACC-257 > 100 µM | SF-295 > 100 µM | Malme-3M > 100 µM | LOX IMVI > 100 µM | SN12C > 100 µM | NCI-H226 > 100 µM | SNB-78 > 100 µM | XF498 > 100 µM

Source: ChEMBL document CHEMBL1201862, “PubChem BioAssay data set” (2004)
